# Activity calls are given as the source filed them. The calls are words filed in the database; no cut-off is given here.
# Key:
# A549 = experiment: Antiproliferative activity against human A549 cells assessed as reduction in cell viability measured for 48 hrs by MTT assay; format: functional, cell-based; conditions: A549, 48 h
# K562 = experiment: Antiproliferative activity against human K562 cells assessed as reduction in cell viability measured for 48 hrs by MTT assay; format: functional, cell-based; conditions: K562, 48 h
# [1] = molecular target: Dual specificity protein kinase CLK1 (Homo sapiens, UniProt P49759); experiment: Inhibition of CLK1 (unknown origin)
# HCT-116 = experiment: Antiproliferative activity against human HCT-116 cells assessed as reduction in cell viability measured for 48 hrs by MTT assay; format: functional, cell-based; conditions: HCT-116, 48 h
# HepG2 = experiment: Antiproliferative activity against human HepG2 cells assessed as reduction in cell viability measured for 48 hrs by MTT assay; format: functional, cell-based; conditions: HepG2, 48 h
# MGC-803 = experiment: Antiproliferative activity against human MGC-803 cells assessed as reduction in cell viability measured for 48 hrs by MTT assay; format: functional, cell-based; conditions: MGC-803, 48 h
# MCF7 = experiment: Antiproliferative activity against human MCF7 cells assessed as reduction in cell viability measured for 48 hrs by MTT assay; format: functional, cell-based; conditions: MCF7, 48 h
# HT-29 = experiment: Antiproliferative activity against human HT-29 cells assessed as reduction in cell viability measured for 48 hrs by MTT assay; format: functional, cell-based; conditions: HT-29, 48 h
# [2] = molecular target: Dual specificity tyrosine-phosphorylation-regulated kinase 1A (Homo sapiens, UniProt Q13627); experiment: Inhibition of DYRK1A (unknown origin)
# PC-3 = experiment: Antiproliferative activity against human PC-3 cells assessed as reduction in cell viability measured for 48 hrs by MTT assay; format: functional, cell-based; conditions: PC-3, 48 h
# [3] = molecular target: T1, Cyclin-dependent kinase 7 (Homo sapiens, UniProt P50613); experiment: Inhibition of CDK7 (unknown origin)
# [4] = molecular target: T2, Dual specificity protein kinase CLK4 (Homo sapiens, UniProt Q9HAZ1); experiment: Inhibition of CLK4 (unknown origin)
# Target sequence in this assay (Q9HAZ1 whole entry): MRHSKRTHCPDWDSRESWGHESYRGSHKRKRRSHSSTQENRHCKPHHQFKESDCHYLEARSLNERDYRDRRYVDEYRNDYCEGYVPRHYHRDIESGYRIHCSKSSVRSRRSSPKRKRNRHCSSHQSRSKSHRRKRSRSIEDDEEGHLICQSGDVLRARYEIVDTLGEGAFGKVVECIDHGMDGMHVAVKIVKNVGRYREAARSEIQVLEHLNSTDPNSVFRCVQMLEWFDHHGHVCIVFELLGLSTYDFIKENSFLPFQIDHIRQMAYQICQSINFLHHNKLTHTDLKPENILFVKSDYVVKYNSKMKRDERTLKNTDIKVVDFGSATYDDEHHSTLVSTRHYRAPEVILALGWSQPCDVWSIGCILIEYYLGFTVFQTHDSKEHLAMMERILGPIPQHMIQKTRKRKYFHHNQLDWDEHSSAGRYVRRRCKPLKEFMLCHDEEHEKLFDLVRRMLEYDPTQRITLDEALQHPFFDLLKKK
# [5] = molecular target: T3, Dual specificity protein kinase CLK2 (Homo sapiens, UniProt P49760); experiment: Inhibition of CLK2 (unknown origin)
# Target sequence in this assay (P49760 whole entry): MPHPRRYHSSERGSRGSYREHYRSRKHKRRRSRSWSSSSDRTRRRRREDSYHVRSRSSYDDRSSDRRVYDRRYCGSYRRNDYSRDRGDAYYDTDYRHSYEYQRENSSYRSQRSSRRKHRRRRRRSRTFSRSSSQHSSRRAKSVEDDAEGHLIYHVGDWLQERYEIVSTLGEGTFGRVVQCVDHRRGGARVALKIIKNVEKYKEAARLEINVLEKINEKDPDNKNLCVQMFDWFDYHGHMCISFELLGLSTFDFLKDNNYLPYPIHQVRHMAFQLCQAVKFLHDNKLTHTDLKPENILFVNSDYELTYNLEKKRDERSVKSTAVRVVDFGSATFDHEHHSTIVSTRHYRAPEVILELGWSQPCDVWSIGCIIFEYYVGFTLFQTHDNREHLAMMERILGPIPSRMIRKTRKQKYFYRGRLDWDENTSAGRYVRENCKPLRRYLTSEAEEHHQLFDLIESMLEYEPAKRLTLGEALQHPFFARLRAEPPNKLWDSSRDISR
# NCI-H1299 = experiment: Antiproliferative activity against human NCI-H1299 cells assessed as reduction in cell viability measured for 48 hrs by MTT assay; format: functional, cell-based; conditions: NCI-H1299, 48 h
# [6] = molecular target: Casein kinase I isoform epsilon (Homo sapiens, UniProt P49674); experiment: Inhibition of CK1epsilon (unknown origin)
# [7] = Antiproliferative activity against human HEK293 cells assessed as reduction in cell viability measured for 48 hrs by MTT assay; format: toxicity, cell-based
# MDA-MB-231 [8] = experiment: Antiproliferative activity against human MDA-MB-231 cells assessed as reduction in cell viability measured for 48 hrs by MTT assay; format: functional, cell-based; conditions: MDA-MB-231, 48 h
# [9] = Antiproliferative activity against human HUVEC cells assessed as reduction in cell viability measured for 48 hrs by MTT assay; format: toxicity, cell-based
# MDA-MB-468 = experiment: Antiproliferative activity against human MDA-MB-468 cells assessed as reduction in cell viability measured for 48 hrs by MTT assay; format: functional, cell-based; conditions: MDA-MB-468, 48 h
# MDA-MB-231 [10] = experiment: Induction of ROS generation in human MDA-MB-231 cells assessed as increase in intracellular ROS level at 40 uM incubated for 48 hrs by DCFH-DA staining based fluorescence microscopic analysis (Rvb= 24.7%); format: functional
# MDA-MB-231 [11] = experiment: Inhibition of cell migration human MDA-MB-231 cells at 0.01 to 0.4 uM incubated for 20 hrs by DAPI staining based analysis; format: functional; conditions: dose 0.01-0.4 µM
# Cell membrane = experiment: Induction of mitochondrial membrane potential loss in human MDA-MB-231 cells assessed as increase in fluorescence intensity at 40 uM incubated for 48 hrs by TMRM dye based flow cytometry analysis (reference value: 97.5%)
# HUVEC = experiment: Antiangiogenesis activity in HUVEC cells at 125 nM incubated for 12 hrs by microscopic analysis; format: functional, cell-based; conditions: Homo sapiens
# MDA-MB-231 [12] = experiment: Inhibition of cell migration human MDA-MB-231 cells assessed as migration distance at 25 uM incubated for 48 hrs by wound healing assay (reference value: 642.72 micrometer); format: functional
# MDA-MB-231 [13] = experiment: Inhibition of cell migration human MDA-MB-231 cells assessed as migration distance at 25 uM incubated for 24 hrs by wound healing assay (reference value: 642.72 micrometer); format: functional
# [14] = molecular target: T3, Dual specificity protein kinase CLK2; experiment: Inhibition of CLK2 (unknown origin) at 1 uM relative to control
# Target sequence in this assay (P49760 whole entry, looked up): as the sequence (P49760 whole entry) above
# [15] = molecular target: T2, Dual specificity protein kinase CLK4; experiment: Inhibition of CLK4 (unknown origin) at 10 uM relative to control
# Target sequence in this assay (Q9HAZ1 whole entry, looked up): as the sequence (Q9HAZ1 whole entry) above
# [16] = molecular target: Cyclin-dependent kinase 9 (Homo sapiens) (UniProt P50750); experiment: Inhibition of CDK9 (unknown origin) at 1 uM relative to control
# [17] = molecular target: T4, Cyclin-dependent kinase 5/CDK5 activator 1 (Homo sapiens) (UniProt Q00535+Q15078); experiment: Inhibition of CDK5/P25 (unknown origin) at 1 uM relative to control; format: protein-complex assay
# [18] = molecular target: Cyclin-dependent kinase 9 (Homo sapiens) (UniProt P50750); experiment: Inhibition of CDK9 (unknown origin) at 10 uM relative to control
# [19] = molecular target: T1, Cyclin-dependent kinase 7; experiment: Inhibition of CDK7 (unknown origin) at 10 uM relative to control
# [20] = molecular target: T4, Cyclin-dependent kinase 5/CDK5 activator 1 (Homo sapiens); experiment: Inhibition of CDK5/P25 (unknown origin) at 10 uM relative to control; format: protein-complex assay
# [21] = molecular target: T3, Dual specificity protein kinase CLK2; experiment: Inhibition of CLK2 (unknown origin) at 10 uM relative to control
# Target sequence in this assay (P49760 whole entry, looked up): as the sequence (P49760 whole entry) above
# [22] = molecular target: T2, Dual specificity protein kinase CLK4; experiment: Inhibition of CLK4 (unknown origin) at 1 uM relative to control
# Target sequence in this assay (Q9HAZ1 whole entry, looked up): as the sequence (Q9HAZ1 whole entry) above
# [23] = molecular target: T5, Cyclin-dependent kinase 2/cyclin E1 (Homo sapiens) (UniProt P24864+P24941); experiment: Inhibition of CDK2/Cyclin E (unknown origin) at 1 uM relative to control; format: protein-complex assay
# [24] = molecular target: T1, Cyclin-dependent kinase 7; experiment: Inhibition of CDK7 (unknown origin) at 1 uM relative to control
# [25] = molecular target: T5, Cyclin-dependent kinase 2/cyclin E1 (Homo sapiens); experiment: Inhibition of CDK2/Cyclin E (unknown origin) at 10 uM relative to control; format: protein-complex assay
# Chain of Dual specificity protein kinase CLK1 (P49759 whole entry): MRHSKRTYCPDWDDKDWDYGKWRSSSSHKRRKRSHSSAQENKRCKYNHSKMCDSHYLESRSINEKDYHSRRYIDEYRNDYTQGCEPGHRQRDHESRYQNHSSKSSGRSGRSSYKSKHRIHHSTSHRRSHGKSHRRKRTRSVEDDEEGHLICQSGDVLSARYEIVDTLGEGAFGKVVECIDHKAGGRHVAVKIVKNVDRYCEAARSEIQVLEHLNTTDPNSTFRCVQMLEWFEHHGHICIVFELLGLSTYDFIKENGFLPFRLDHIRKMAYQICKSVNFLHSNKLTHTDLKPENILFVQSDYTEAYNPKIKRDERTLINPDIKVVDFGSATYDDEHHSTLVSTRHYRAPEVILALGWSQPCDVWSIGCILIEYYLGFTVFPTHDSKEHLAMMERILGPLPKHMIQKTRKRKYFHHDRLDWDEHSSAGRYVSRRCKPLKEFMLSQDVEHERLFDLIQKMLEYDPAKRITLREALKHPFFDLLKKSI
# T1 sequence (P50613 whole entry): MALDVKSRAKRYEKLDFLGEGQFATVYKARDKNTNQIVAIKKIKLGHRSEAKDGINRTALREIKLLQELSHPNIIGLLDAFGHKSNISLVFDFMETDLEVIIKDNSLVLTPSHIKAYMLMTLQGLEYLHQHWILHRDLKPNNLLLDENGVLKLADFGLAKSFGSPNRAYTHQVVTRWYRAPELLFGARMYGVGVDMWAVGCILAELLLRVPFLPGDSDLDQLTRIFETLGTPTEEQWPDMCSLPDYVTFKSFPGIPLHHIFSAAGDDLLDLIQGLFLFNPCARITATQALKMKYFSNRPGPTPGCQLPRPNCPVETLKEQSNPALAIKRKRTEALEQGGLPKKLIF
# Chain of Casein kinase I isoform epsilon (P49674 whole entry, canonical isoform): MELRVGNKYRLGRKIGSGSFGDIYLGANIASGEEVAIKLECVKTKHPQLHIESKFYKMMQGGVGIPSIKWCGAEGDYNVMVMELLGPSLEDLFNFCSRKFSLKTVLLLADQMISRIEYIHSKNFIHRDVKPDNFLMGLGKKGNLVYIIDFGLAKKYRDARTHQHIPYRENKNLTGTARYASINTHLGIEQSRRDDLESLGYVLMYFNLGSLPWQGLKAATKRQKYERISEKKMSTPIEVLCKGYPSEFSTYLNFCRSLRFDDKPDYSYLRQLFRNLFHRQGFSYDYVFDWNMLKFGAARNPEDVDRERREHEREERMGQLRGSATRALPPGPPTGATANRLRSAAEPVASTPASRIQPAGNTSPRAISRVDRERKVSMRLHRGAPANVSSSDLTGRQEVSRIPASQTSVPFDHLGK
# Chain of Cyclin-dependent kinase 9 (Homo sapiens) (P50750 whole entry): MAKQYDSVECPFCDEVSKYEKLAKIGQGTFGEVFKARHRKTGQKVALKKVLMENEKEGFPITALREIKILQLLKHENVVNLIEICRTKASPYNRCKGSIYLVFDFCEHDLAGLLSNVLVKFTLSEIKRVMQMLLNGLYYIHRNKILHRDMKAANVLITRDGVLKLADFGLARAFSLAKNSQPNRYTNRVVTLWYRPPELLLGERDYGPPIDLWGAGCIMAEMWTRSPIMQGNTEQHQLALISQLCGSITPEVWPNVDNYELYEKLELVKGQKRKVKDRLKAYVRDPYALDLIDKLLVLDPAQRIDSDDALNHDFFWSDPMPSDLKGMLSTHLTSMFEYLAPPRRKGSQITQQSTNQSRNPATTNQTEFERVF
# T4 sequence (Q00535 whole entry): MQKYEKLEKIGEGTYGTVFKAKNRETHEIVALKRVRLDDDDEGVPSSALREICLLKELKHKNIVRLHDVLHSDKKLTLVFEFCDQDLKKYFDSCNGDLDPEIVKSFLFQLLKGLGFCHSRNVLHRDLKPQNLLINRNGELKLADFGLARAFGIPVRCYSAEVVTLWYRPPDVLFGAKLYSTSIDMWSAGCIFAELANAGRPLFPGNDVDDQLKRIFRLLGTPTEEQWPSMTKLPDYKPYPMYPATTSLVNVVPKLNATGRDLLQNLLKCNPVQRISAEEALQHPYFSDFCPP
# T4 sequence (Q15078 99-307 partner limits assumed): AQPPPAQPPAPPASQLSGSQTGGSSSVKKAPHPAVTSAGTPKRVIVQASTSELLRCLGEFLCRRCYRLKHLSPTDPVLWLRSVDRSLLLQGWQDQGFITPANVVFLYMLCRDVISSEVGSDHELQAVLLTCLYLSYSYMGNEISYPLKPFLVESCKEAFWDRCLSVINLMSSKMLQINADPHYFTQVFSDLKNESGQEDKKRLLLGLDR
Compound,IC50 (A549) [µM],IC50 (K562) [µM],IC50 [1] [µM],IC50 (HCT-116) [µM],IC50 (HepG2) [µM],IC50 (MGC-803) [µM],IC50 (MCF7) [µM],IC50 (HT-29) [µM],IC50 [2] [µM],IC50 (PC-3) [µM],IC50 [3] [µM],IC50 [4] [µM],IC50 [5] [µM],IC50 (NCI-H1299) [µM],IC50 [6] [µM],further results
CC(C)n1cnc2c(NCc3ccc(F)c(F)c3)nc(N3CCC(C4CCN(CCO)CC4)CC3)nc21,2.49,0.44,0.949,2.8,3.05,5.07,3.05,3.47,0.79,3.95,0.597,0.31,0.08,19.6,0.415,
CC(C)n1cnc2c(NCc3ccncc3)nc(N3CCC(C4CCN(CCO)CC4)CC3)nc21,34.7,31,,24.4,58.8,> 100,10.1,35.9,,,,,,38.7,,
CC(C)n1cnc2c(NCc3cc(F)cnc3Cl)nc(N3CCC(C4CCN(CCO)CC4)CC3)nc21,0.45,0.29,,0.35,6.91,6.78,6.03,2.39,,,,,,2.75,,IC50 at 48 h [7]: 0.46 µM; IC50 (MDA-MB-231 [8]): 0.4 µM; IC50 at 48 h [9]: 1.55 µM; IC50 (MDA-MB-468): 4.07 µM
CC(C)n1cnc2c(NCc3ccccn3)nc(N3CCC(C4CCN(CCO)CC4)CC3)nc21,38.4,28.7,0.173,22.8,76.1,> 100,44.5,53.9,0.208,,0.043,0.047,0.02,53.4,0.167,
OCCN1CCC(C2CCN(c3nc(NCc4ccc(Cl)c(F)c4)c4ncn(C5CCCC5)c4n3)CC2)CC1,3.54,2.63,0.78,2.95,1.75,19.9,2.83,4.21,0.445,7.2,2.04,0.126,0.058,4.77,0.193,
CC[C@H](CO)Nc1nc(NCc2ccccc2)c2ncn(C(C)C)c2n1 [SELICICLIB],> 100,> 100,,17.3,> 100,> 100,> 100,> 100,,> 100,,,,83,,Activity (MDA-MB-231 [10]): 21.8%; inhibition (MDA-MB-231 [11]): Active; Activity (Cell membrane): 87.5%; Activity (HUVEC): Active; Activity (MDA-MB-231 [12]): 453.91 um; Activity (MDA-MB-231 [13]): 348.27 um
CC(C)n1cnc2c(NCc3ccccc3)nc(N3CCC(C4CCN(CCO)CC4)CC3)nc21,,,0.412,2.23,1.82,,,3.17,0.877,,0.143,0.158,0.068,,0.771,inhibition [14]: 99%; inhibition [15]: 97%; inhibition [16]: 8%; inhibition [17]: 4%; inhibition [18]: 40%; inhibition [19]: 96%; inhibition [20]: 42%; inhibition [21]: 99%; inhibition [22]: 92%; inhibition [23]: 2%; inhibition [24]: 88%; inhibition [25]: 49%
CC(C)n1cnc2c(NCc3cccnc3Cl)nc(N3CCC(C4CCN(CCO)CC4)CC3)nc21,> 100,> 100,,54.5,> 100,> 100,> 100,> 100,,,,,,> 100,,
CC[C@@]1(O)C(=O)OCc2c1cc1n(c2=O)Cc2cc3ccccc3nc2-1 [CAMPTOTHECIN],5.5,0.08,,0.21,,> 100,6.39,0.19,,> 100,,,,> 100,,IC50 at 48 h [7]: 0.81 µM; IC50 (MDA-MB-231 [8]): > 100 µM; IC50 at 48 h [9]: 0.04 µM; IC50 (MDA-MB-468): > 100 µM
OCCN1CCC(C2CCN(c3nc(NCc4cc(F)cc(F)c4)c4ncn(C5CCCC5)c4n3)CC2)CC1,2.33,2.54,,41.9,4.43,5.7,2.93,3.41,,4.36,,,,6.49,,

# — ChEMBL document CHEMBL5634109, “Synthesis and mechanism of action of new purine derivatives against triple negative breast cancer” (Eur J Med Chem, 2023)
